Measurements published in patent US20080233432A1, “Composition, Method for Fabricating Light-Emitting Element, Light-Emitting Element, Light-Emitting Device, and Electronic Device” (Semiconductor Energy Laboratory Co., Ltd., priority 2007, published 2008).

Test: solubility test of organometallic complexes in various solvents
Assay type: physicochemical
Conditions: for solubility x in anisole: solvent having aromatic ring: anisole; for solubility x in toluene: solvent having aromatic ring: toluene; for solubility x in 2-ethoxyethanol / solubility x in ethanol / solubility x in isopropanol / solubility x in methanol / solubility x in diethyl ether: solvent not having aromatic ring; for solubility x in 2-ethoxyethanol: alcohol: 2-ethoxyethanol; for solubility x in ethanol: alcohol: ethanol; for solubility x in isopropanol: alcohol: isopropanol; for solubility x in methanol: alcohol: methanol
Method: In Example 1, the solubility of an organometallic complex having a pyrazine skeleton as described in Embodiment Mode 1 was evaluated. The evaluation was performed by examining the solubility in various solvents. For the solvent, toluene and anisole were each used as a solvent having an aromatic ring. Further, diethyl ether which is ether, and 2-ethoxyethanol, isopropanol, ethanol, and methanol which are alcohols were each used as a solvent not having an aromatic ring.
In addition, the solubility of btp2Ir(acac) (a structural formula (101) given below), which is disclosed in Nonpatent Document 1 was evaluated as a comparative sample A. In addition, the solubility of Ir(ppy)2(acac) (a structural formula (102) given below) was evaluated as a comparative sample B.

SMILES	solubility x in anisole	solubility x in toluene	solubility x in 2-ethoxyethanol	solubility x in ethanol	solubility x in isopropanol	solubility x in methanol	solubility x in diethyl ether
Cc1cnc(-c2[c-]cc(F)cc2)c(-c2ccc(F)cc2)n1.Cc1cnc(-c2[c-]cc(F)cc2)c(-c2ccc(F)cc2)n1.O=C([O-])c1ccccn1.[Ir+3] [Sample 5]	⊚ (a double circle in the case of x≧1.2)	⊚ (a double circle in the case of x≧1.2)	⊚ (a double circle in the case of x≧1.2)	⊚ (a double circle in the case of x≧1.2)	⊚ (a double circle in the case of x≧1.2)	X (a cross in the case of x<0.6)	X (a cross in the case of x<0.6)
CC(=O)C=C(C)[O-].Cc1nc(C(C)C)cnc1-c1[c-]cccc1.Cc1nc(C(C)C)cnc1-c1[c-]cccc1.[Ir+3] [Sample 9]	⊚ (a double circle in the case of x≧1.2)	⊚ (a double circle in the case of x≧1.2)	⊚ (a double circle in the case of x≧1.2)	Δ (a triangle in the case of 0.9>x≧0.6)	Δ (a triangle in the case of 0.9>x≧0.6)	X (a cross in the case of x<0.6)	⊚ (a double circle in the case of x≧1.2)
CC(=O)C=C(C)[O-].Cc1cnc(-c2[c-]cc(F)cc2)c(-c2ccc(F)cc2)n1.Cc1cnc(-c2[c-]cc(F)cc2)c(-c2ccc(F)cc2)n1.[Ir+3] [Sample 4]	⊚ (a double circle in the case of x≧1.2)	⊚ (a double circle in the case of x≧1.2)	⊚ (a double circle in the case of x≧1.2)	X (a cross in the case of x<0.6)	X (a cross in the case of x<0.6)	X (a cross in the case of x<0.6)	⊚ (a double circle in the case of x≧1.2)
CC(C)c1cnc(-c2[c-]cc(F)cc2)c(-c2ccc(F)cc2)n1.CC(C)c1cnc(-c2[c-]cc(F)cc2)c(-c2ccc(F)cc2)n1.O=C([O-])c1ccccn1.[Ir+3] [Sample 7]	⊚ (a double circle in the case of x≧1.2)	⊚ (a double circle in the case of x≧1.2)	⊚ (a double circle in the case of x≧1.2)	X (a cross in the case of x<0.6)	X (a cross in the case of x<0.6)	X (a cross in the case of x<0.6)	X (a cross in the case of x<0.6)
CC(=O)C=C(C)[O-].[Ir+3].[c-]1ccccc1-c1nccnc1-c1ccccc1.[c-]1ccccc1-c1nccnc1-c1ccccc1 [Sample 1]	⊚ (a double circle in the case of x≧1.2)	◯ (a circle in the case of 1.2>x≧0.9)	X (a cross in the case of x<0.6)	X (a cross in the case of x<0.6)	X (a cross in the case of x<0.6)	X (a cross in the case of x<0.6)	X (a cross in the case of x<0.6)
CC(=O)C=C(C)[O][Ir]([c]1ccccc1-c1ncc(-c2ccccc2)nc1-c1ccccc1)[c]1ccccc1-c1ncc(-c2ccccc2)nc1-c1ccccc1 [Sample 10, (acetylacetonato)bis(2,3,5-triphenylpyrazinato)iridium(III)]	⊚ (a double circle in the case of x≧1.2)	⊚ (a double circle in the case of x≧1.2)	⊚ (a double circle in the case of x≧1.2)	X (a cross in the case of x<0.6)	X (a cross in the case of x<0.6)	X (a cross in the case of x<0.6)	⊚ (a double circle in the case of x≧1.2)
CC(=O)C=C(C)[O-].Fc1c[c-]c(-c2nccnc2-c2ccc(F)cc2)cc1.Fc1c[c-]c(-c2nccnc2-c2ccc(F)cc2)cc1.[Ir+3] [Sample 2]	⊚ (a double circle in the case of x≧1.2)	◯ (a circle in the case of 1.2>x≧0.9)	X (a cross in the case of x<0.6)	X (a cross in the case of x<0.6)	X (a cross in the case of x<0.6)	X (a cross in the case of x<0.6)	X (a cross in the case of x<0.6)
